Reference: patent US20220275389A1, “MODIFIED EXOPOLYSACCHARIDE RECEPTORS FOR RECOGNIZING AND STRUCTURING MICROBIOTA” (Aarhus Universitet, priority 2019, published 2022)
“Also recorded” adds a separate entry of the source. Read-outs that look alike come from different tables or passages of the source.

Legend:
[1] = target: Lotus japonicus EPR3 ectodomain (EPR3 ED, residues 33-232), wild type, EPR3 SEQ ID NO: 61 (Lotus japonicus, UniProt D3KU53); test: Microscale thermophoresis (MST) binding of EPS ligands to EPR3 ectodomain (ED); conditions: 100 nM EPR3 ED, pH 7.8, 25° C.; for Kd: 95% confidence interval, read-out: equilibrium dissociation constant (Kd)
Lotus japonicus EPR3 ectodomain (EPR3 ED, residues 33-232), wild type, EPR3 SEQ ID NO: 61, sequence (D3KU53 entry or part of it): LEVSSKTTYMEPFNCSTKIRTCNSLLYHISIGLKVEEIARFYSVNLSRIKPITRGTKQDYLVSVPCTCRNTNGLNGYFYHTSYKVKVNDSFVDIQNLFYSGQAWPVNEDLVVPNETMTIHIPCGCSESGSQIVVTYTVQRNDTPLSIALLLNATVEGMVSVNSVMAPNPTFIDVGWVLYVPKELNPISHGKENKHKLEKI
Experimental: Expression and purification of L. japonicus ecotype Gifu EPR3 ectodomain (ED) was performed as described previously (Kawaharada, Y et al. Nature 2015 523: 308-312). In brief, DNA encoding residues 33-232 of EPR3 (corresponding to the EPR3 ED) containing an N-terminal gp67 secretion signal and a C-terminal 6×His-tag was codon-optimized for insect cell expression (GenScript) and inserted into the pOET2 vector (Oxford Expression Technologies). Baculoviruses, used for infecting Sf9 cells cultured in suspension in serum-free HyClone SFX-Insect medium (FisherScientific), were obtained using the flashBAC GOLD system (OET). Five days post inoculation, the media was dialyzed against buffer containing 50 mM Tris-HCl pH 8.0 and 200 mM NaCl before centrifugation and loaded on a HisTrap excel affinity column (GE Healthcare). The eluted protein was dialyzed against buffer containing 50 mM Tris-HCl pH 8.0 and 200 mM NaCl, and further purified on a HisTrap HP affinity column (GE Healthcare). For crystallization, the EPR3 ED was treated with PNGase F (1:15 w/w ratio) for 1 hour at room temperature and overnight at 4° C. to remove N-linked oligosaccharides. EPR3 ED was then purified on a Mono S 5/50 column (GE Healthcare) and eluted with a linear gradient of 50-300 mM NaCl and 50 mM Tris-HCl, pH 7.0. Both glycosylated and de-glycosylated EPR3 ED were finally purified on a Superdex 75 10/300 column (GE Healthcare) in gel filtration buffer containing 50 mM KH2-PO4 pH 7.8 and 200 mM NaCl (for microscale thermophoresis binding experiments) or 50 mM Tris-HCl pH 8.0 and 200 mM NaCl (for crystallization).
Low molecular mass (LMM) exopolysaccharides (EPS) were isolated from various rhizobial strains including Mesorhizobium loti strain R7A ndvB6, R. leguminosarum bv. viciae 3855 (this work) and Sinorhizobium meliloti B578 (Griffins, J. S. et al. Mol. Microbiol. 2008 69: 479-490) that were deficient in cyclic glucan production were grown on minimal media with glucose as the sole source of carbon. The LMM EPS was isolated from the bacterial culture supernatants and purified via sequential precipitation with 6 volumes of 99.8% EtOH (v/v), followed by 9 volumes EtOH (v/v) and purified by size exclusion chromatography (SEC) as previously described (Muszyński, A. et al. J. Biol. Chem. 2016 291: 20946-20961). O-acetyl groups were removed chemically by mild overnight treatment of native EPS samples with 12.5% NH4OH (Muszyński, A. et al. J. Biol. Chem. 2016 291: 20946-20961). […] The glycosyl composition and linkage was determined as previously described (Muszyński, A. et al. J. Biol. Chem. 2016 291: 20946-20961). […]

[2] = target: Lotus japonicus EPR3a ectodomain (EPR3a ED), wild type, EPR3a SEQ ID NO: 62; test: Microscale thermophoresis (MST) binding of polysaccharides to EPR3a ectodomain (ED); conditions: for Kd: FIGS. 11E-11H, preparation of FIG. 11D
Experimental: Low molecular mass (LMM) exopolysaccharides (EPS) were isolated from various rhizobial strains including Mesorhizobium loti strain R7A ndvB6, R. leguminosarum bv. viciae 3855 (this work) and Sinorhizobium meliloti B578 (Griffins, J. S. et al. Mol. Microbiol. 2008 69: 479-490) that were deficient in cyclic glucan production were grown on minimal media with glucose as the sole source of carbon. The LMM EPS was isolated from the bacterial culture supernatants and purified via sequential precipitation with 6 volumes of 99.8% EtOH (v/v), followed by 9 volumes EtOH (v/v) and purified by size exclusion chromatography (SEC) as previously described (Muszyński, A. et al. J. Biol. Chem. 2016 291: 20946-20961). O-acetyl groups were removed chemically by mild overnight treatment of native EPS samples with 12.5% NH4OH (Muszyński, A. et al. J. Biol. Chem. 2016 291: 20946-20961). Native and de-O-acetylated samples were verified via matrix-assisted laser desorption/ionization time of flight mass spectrometry (MALDI-TOF MS) analysis on Applied Biosystems AB SCIEX TOF/TOF 5800 system in either negative or positive reflector ionization modes. The glycosyl composition and linkage was determined as previously described (Muszyński, A. et al. J. Biol. Chem. 2016 291: 20946-20961).
Purified EPR3 was fluorescently labeled using the Monolith NT.115TM Protein Labelling Kit Blue NHS (NanoTemper Technologies) according to the manufacturer's instructions. […] To accurately account for this unspecific binding ligand binding to 50 nM free fluorescent label was measured and this small background was subtracted contribution from all the respective MST binding measurements. […] Binding data were processed with the GraphPad Prism 7 software (GraphPad Software, Inc.) and the equilibrium dissociation constants (Kd) values (95% confidence interval) were calculated using the sigmoidal dose-response equations. […]

L. japonicus EPR3a ED = test: Microscale thermophoresis (MST) binding to EPR3a ED; conditions: for binding of EPR3a ED to polysaccharide (detectable or not): FIGS. 11I-11J
Experimental: Purified EPR3 was fluorescently labeled using the Monolith NT.115TM Protein Labelling Kit Blue NHS (NanoTemper Technologies) according to the manufacturer's instructions. All experiments were performed in MST buffer (50 mM K2PO4, pH 7.8, 500 mM NaCl, and 0.05% Tween-20) with a constant concentration of EPR3 ED (100 nM and ˜50% labelling efficiency) and dilution series of the various ligands. The samples were incubated for 30 minutes at room temperature before loaded into standard capillaries for measurements on a Monolith NT.115 TM instrument (NanoTemper Technologies) at 25° C., with blue LED power of 50% and MST power of 20%. To accurately measure the experimental errors and ensure data reproducibility, all MST binding experiments were performed with at least three independently purified samples of EPR3. At the highest ligand concentrations, weak ligand binding to the fluorescent label itself was occasionally observed. To accurately account for this unspecific binding ligand binding to 50 nM free fluorescent label was measured and this small background was subtracted contribution from all the respective MST binding measurements. The competition experiments were performed by pre-incubating labeled EPR3 ED with 250 μM R7A EPS or R7A exoU EPS and assessing the binding of EPR3 ED to titrated R7A exoU EPS or R7A EPS, respectively. Binding data were processed with the GraphPad Prism 7 software (GraphPad Software, Inc.) and the equilibrium dissociation constants (Kd) values (95% confidence interval) were calculated using the sigmoidal dose-response equations.
The EPR3a ED was expressed in insect cells, and the protein was purified as described in Example 1 (FIG. 11D).
MST experiments were performed as described in Example 2 (FIG. 11C, FIGS. 11E-11J).

[3] = FIGS. 11E-11H, n=3, EPR3a ED preparation of FIG. 11D (figure legend), read-out: equilibrium dissociation constant (Kd)

CC(=O)N[C@H]1[C@H](O[C@H]2[C@H](O)[C@@H](NC(C)=O)[C@H](O[C@H]3[C@H](O)[C@@H](NC(C)=O)C(O)O[C@@H]3CO)O[C@@H]2CO)O[C@H](CO)[C@@H](O[C@@H]2O[C@H](CO)[C@@H](O[C@@H]3O[C@H](CO)[C@@H](O[C@@H]4O[C@H](CO)[C@@H](O)[C@H](O)[C@H]4NC(C)=O)[C@H](O)[C@H]3NC(C)=O)[C@H](O)[C@H]2NC(C)=O)[C@@H]1O (stereo partly shown) [C06, Chitohexose]
binding [1]: unable to bind

O=C(O)[C@H]1O[C@@H](O[C@H]2[C@H](O)[C@@H](O)[C@@H](O[C@H]3[C@H](O)[C@@H](O)[C@H](OC[C@H]4O[C@@H](OC[C@H]5O[C@@H](O[C@H]6[C@H](O)[C@@H](O)[C@H](O[C@H]7[C@H](O)[C@@H](O)[C@H](O[C@H]8[C@@H](O)[C@@H](CO)OC(O)[C@@H]8O)O[C@@H]7CO)O[C@@H]6CO)[C@H](O)[C@@H](O)[C@@H]5O)[C@H](O)[C@@H](O)[C@@H]4O)O[C@@H]3CO)O[C@@H]2C(=O)O)[C@H](O)[C@@H]1O (stereo partly shown) [R7A deOAc-EPS]
Kd [1]: 31.3 ± 11.7 µM
Kd ([2]; n=3, figure legend, read-out: equilibrium dissociation constant (Kd)): 57.2 ± 15.6 µM
Kd ([2]; read-out: equilibrium dissociation constant of Kd): 57.2 ± 15.6 µM

CC(=O)N[C@H]1[C@H](O[C@H]2[C@H](O)[C@@H](NC(C)=O)C(O)O[C@@H]2CO)O[C@H](CO)[C@@H](O[C@@H]2O[C@H](CO)[C@@H](O[C@@H]3O[C@H](CO)[C@@H](O)[C@H](O)[C@H]3NC(C)=O)[C@H](O)[C@H]2NC(C)=O)[C@@H]1O (stereo partly shown) [chitotetraose]
binding of EPR3a ED to polysaccharide (detectable or not) (L. japonicus EPR3a ED; n=3): absence of binding
binding of EPR3a ED to polysaccharide (detectable or not) (L. japonicus EPR3a ED; n=3, listed as chitin): did not bind
binding ([2]; FIG. 11I, n=3): did not bind; also recorded: absence of binding

(2,3/3-OAc)β-D-RibfA-(1→4)-a-D-GlcpA-(1→4)-β-D-Glcp-(1→6)-(3OAc)β-D-Glcp-(1→6)-(2OAc)β-D-Glcp-(1→4)-(2/3OAc)β-D-Glcp-(1→4)-β-D-Glcp-(1→3)-β-D-Galp [R7A EPS] [listing 1 of 2 here]
Kd (L. japonicus EPR3a ED; FIG. 11C, R^2=0.98, read-out: equilibrium dissociation constant (Kd)): 25.6 µM
Kd (L. japonicus EPR3a ED; [3]): 44.4 ± 11.2 µM

(2,3/3-OAc)β-D-RibfA-(1→4)-a-D-GlcpA-(1→4)-β-D-Glcp-(1→6)-(3OAc)β-D-Glcp-(1→6)-(2OAc)β-D-Glcp-(1→4)-(2/3OAc)β-D-Glcp-(1→4)-β-D-Glcp-(1→3)-β-D-Galp [R7A EPS] [listing 2 of 2 here]
Kd [1]: 38.1 ± 7.5 µM

S. meliloti EPS [listing 1 of 2 here]
Kd (L. japonicus EPR3a ED; [3]): 937 ± 389 µM

S. meliloti EPS [listing 2 of 2 here]
Kd [1]: 222 ± 102 µM

maltodextrin
binding of EPR3a ED to polysaccharide (detectable or not) (L. japonicus EPR3a ED; n=3): did not bind; also recorded: absence of binding
